In patent publication US9873696B2, “Neprilysin inhibitors” (THERAVANCE BIOPHARMA R&D IP, LLC, priority 2010, dated 2018):

molecular target: T1, human NEP (Homo sapiens, UniProt P08473); experiment: In vitro enzyme inhibition assay at human NEP (Assay 1); type: biochemical; settings: recombinant enzyme, fluorogenic peptide substrate, 37° C.
T1 construct: purchased R&D Systems, Minneapolis, Minn; 1182-ZN
How it was run: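 Recombinant enzyme preincubated with compound 30 min at 37 °C, then 10 μM Mca-D-Arg-Arg-Leu-Dap-(Dnp)-OH added in 50 mM HEPES pH 7.5, 100 mM NaCl, 0.01% Tween-20, 10 μM ZnSO4; stopped after 20 min with acetic acid. Fluorescence read at 320/405 nm; Ki from nonlinear fit of v=v0/[1+(I/K′)], reported as pKi.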

T1 sequence (P08473 whole entry): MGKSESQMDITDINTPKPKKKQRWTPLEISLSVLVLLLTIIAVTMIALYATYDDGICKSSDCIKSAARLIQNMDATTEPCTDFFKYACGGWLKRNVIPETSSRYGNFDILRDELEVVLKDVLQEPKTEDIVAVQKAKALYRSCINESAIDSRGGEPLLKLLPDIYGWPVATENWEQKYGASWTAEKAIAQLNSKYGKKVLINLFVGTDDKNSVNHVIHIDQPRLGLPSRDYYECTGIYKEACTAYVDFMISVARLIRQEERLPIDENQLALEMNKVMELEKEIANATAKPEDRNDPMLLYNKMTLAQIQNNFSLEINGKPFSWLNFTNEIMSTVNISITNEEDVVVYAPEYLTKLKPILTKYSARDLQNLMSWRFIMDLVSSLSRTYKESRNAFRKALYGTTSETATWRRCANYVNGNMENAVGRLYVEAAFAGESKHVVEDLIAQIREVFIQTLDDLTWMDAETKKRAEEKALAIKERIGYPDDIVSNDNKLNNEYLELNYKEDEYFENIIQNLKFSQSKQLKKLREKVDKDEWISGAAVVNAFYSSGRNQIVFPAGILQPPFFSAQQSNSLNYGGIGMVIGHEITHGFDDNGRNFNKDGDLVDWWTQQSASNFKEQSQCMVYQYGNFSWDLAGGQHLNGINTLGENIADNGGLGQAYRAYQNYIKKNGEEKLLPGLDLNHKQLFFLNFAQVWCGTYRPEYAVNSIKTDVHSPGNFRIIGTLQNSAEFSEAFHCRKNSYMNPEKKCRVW

Ki [nM] | SMILES
1.26 to 10 | COc1ccccc1-c1ccc(CN(C[C@@H](O)C(=O)O)NC(=O)c2cc(O)no2)cc1 [Example 5-5, (R)-2-Hydroxy-3-[N′-(3-hydroxy-isoxazole-5-carbonyl)-N-(2′-methoxy-biphenyl-4-ylmethyl)-hydrazino]-propionic acid]
≤ 1 | O=C(NN(Cc1ccc(-c2cc(Cl)ccc2Cl)cc1)C[C@H](O)C(=O)O)c1cc(O)no1 [Example 8-22, (S)-3-[N-(2′,5′-Dichloro-biphenyl-4-ylmethyl)-N′-(3-hydroxy-isoxazole-5-carbonyl)-hydrazino]-2-hydroxy-propionic acid]
126 to 1000 | O=C(NN(Cc1ccc(-c2ccccc2)cc1)C[C@H](O)C(=O)O)c1cc(Cl)c2[nH]nnc2c1 [Example 2-25, (S)-3-[N-Biphenyl-4-ylmethyl-N′-(7-chloro-1H-benzotriazole-5-carbonyl)-hydrazino]-2-hydroxypropionic acid]
≤ 1 | O=C(NN(Cc1ccc(-c2cc(Cl)ccc2Cl)cc1)C[C@@H](O)C(=O)O)c1nnn[nH]1 [Example 8-60, (R)-3-[N-(2′,5′-Dichloro-biphenyl-4-ylmethyl)-N′-(1H-tetrazole-5-carbonyl)-hydrazino]-2-hydroxy-propionic acid]
≤ 1 | O=C(NN(Cc1ccc(-c2cc(Cl)ccc2F)cc1)C[C@@H](O)C(=O)O)c1cc(-c2ccccc2Cl)no1 [Example 8-17, (R)-3-{N-(5′-Chloro-2′-fluoro-biphenyl-4-ylmethyl)-N′-[3-(2-chloro-phenyl)-isoxazole-5-carbonyl]-hydrazino}-2-hydroxy-propionic acid]
≤ 1 | Cc1ccc(Cl)cc1-c1ccc(CN(C[C@@H](O)C(=O)O)NC(=O)c2cc(O)no2)cc1 [Example 8-1, (R)-3-[N-(5′-Chloro-2′-methyl-biphenyl-4-ylmethyl)-N′-(3-hydroxy-isoxazole-5-carbonyl)-hydrazino]-2-hydroxy-propionic acid]
≤ 1 | COc1ccccc1C(=O)Nc1cc(C(=O)NN(Cc2ccc(-c3cc(Cl)ccc3F)cc2)C[C@@H](O)C(=O)O)[nH]n1 [Example 8-49, (R)-3-{N-(5′-Chloro-2′-fluoro-biphenyl-4-ylmethyl)-N′-[5-(2-methoxy-benzoylamino)-2H-pyrazole-3-carbonyl]-hydrazino}-2-hydroxy-propionic acid]
1.26 to 10 | O=C(NN(Cc1ccc(-c2cc(Cl)ccc2F)cc1)C[C@@H](O)C(=O)O)c1nn(-c2ccccc2Cl)c(=O)[nH]1 [Example 8-66, (R)-3-{N-(5′-Chloro-2′-fluoro-biphenyl-4-ylmethyl)-N′-[1-(2-chloro-phenyl)-5-oxo-4,5-dihydro-1H-[1,2,4]triazole-3-carbonyl]-hydrazino}-2-hydroxy-propionic acid]
1.26 to 10 | O=C(NN(Cc1ccc(-c2cccc(Cl)c2)cc1)C[C@@H](O)C(=O)O)c1cc(C2CC2)[nH]n1 [Example 4-10, (R)-3-[N-(3′-Chlorobiphenyl-4-ylmethyl)-N′-(5-cyclopropyl-1H-pyrazole-3-carbonyl)-hydrazino]-2-hydroxy-propionic acid]
1.26 to 10 | COc1ccccc1-c1cc(C(=O)NN(Cc2ccc(-c3cccc(Cl)c3)cc2)C[C@@H](O)C(=O)O)[nH]n1 [Example 4-20, (R)-3-{N-(3′-Chlorobiphenyl-4-ylmethyl)-N′-[5-(2-methoxy-phenyl)-2H-pyrazole-3-carbonyl]-hydrazino}-2-hydroxy-propionic acid]
≤ 1 | O=C(NN(Cc1ccc(-c2cccc(Cl)c2)cc1)C[C@@H](O)C(=O)O)c1cc(-c2ccccc2Cl)n[nH]1 [Example 4-15, (R)-3-{N-(3′-Chlorobiphenyl-4-ylmethyl)-N′-[5-(2-chlorophenyl)-2H-pyrazole-3-carbonyl]-hydrazino}-2-hydroxy-propionic acid]
≤ 1 | CC(C)(O)c1cc(C(=O)NN(Cc2ccc(-c3cc(Cl)ccc3F)cc2)C[C@@H](O)C(=O)O)[nH]n1 [Example 8-40, (R)-3-{N-(5′-Chloro-2′-fluoro-biphenyl-4-ylmethyl)-N′-[5-(1-hydroxy-1-methyl-ethyl)-2H-pyrazole-3-carbonyl]-hydrazino}-2-hydroxy-propionic acid]
12.6 to 100 | O=C(NN(Cc1ccc(-c2cccc(Cl)c2)cc1)C[C@@H](O)C(=O)O)c1cnc(-c2ccccc2)o1 [Example 4-28, (R)-3-[N-(3′-Chlorobiphenyl-4-ylmethyl)-N′-(2-phenyl-oxazole-5-carbonyl)-hydrazino]-2-hydroxy-propionic acid]
12.6 to 100 | O=C(NN(Cc1ccc(-c2cc(F)cc(F)c2)cc1)C[C@H](O)C(=O)O)c1cc(O)no1 [Example 8-26, (S)-3-[N-(3′,5′-Difluoro-biphenyl-4-ylmethyl)-N′-(3-hydroxy-isoxazole-5-carbonyl)-hydrazino]-2-hydroxy-propionic acid]
1.26 to 10 | O=C(NN(Cc1ccc(-c2cccc(O)c2)cc1)C[C@H](O)C(=O)O)c1cc(O)no1 [Example 5-3, (S)-2-Hydroxy-3-[N-(3′-hydroxy-biphenyl-4-ylmethyl)-N′-(3-hydroxy-isoxazole-5-carbonyl)-hydrazino]-propionic acid]
≤ 1 | O=C(NN(Cc1ccc(-c2cccc(Cl)c2)cc1)C[C@@H](O)C(=O)O)c1cc(C(=O)N2CC(F)C2)n[nH]1 [Example 4-18, (R)-3-{N-(3′-Chlorobiphenyl-4-ylmethyl)-N′-[5-(3-fluoroazetidine-1-carbonyl)-2H-pyrazole-3-carbonyl]-hydrazino}-2-hydroxy-propionic acid]
1.26 to 10 | O=C(NN(Cc1ccc(-c2cccc(Cl)c2)cc1)C[C@@H](O)C(=O)O)c1cc(-c2ccccc2F)no1 [Example 4-31, (R)-3-{N-(3′-Chlorobiphenyl-4-ylmethyl)-N′-[3-(2-fluorophenyl)-isoxazole-5-carbonyl]-hydrazino}-2-hydroxy-propionic acid]
≤ 1 | CC(C)c1cc(C(=O)NN(Cc2ccc(-c3cc(Cl)ccc3F)cc2)C[C@@H](O)C(=O)O)[nH]n1 [Example 8-44, (R)-3-[N-(5′-Chloro-2′-fluoro-biphenyl-4-ylmethyl)-N′-(5-isopropyl-2H-pyrazole-3-carbonyl)-hydrazino]-2-hydroxy-propionic acid]
≤ 1 | O=C(NN(Cc1ccc(-c2cc(Cl)ccc2F)cc1)C[C@@H](O)C(=O)O)c1cnn[nH]1 [Example 8-75, (R)-3-[N-(5′-Chloro-2′-fluoro-biphenyl-4-ylmethyl)-N′-(3H-[1,2,3]triazole-4-carbonyl)-hydrazino]-2-hydroxy-propionic acid]
1.26 to 10 | O=C(NN(Cc1ccc(-c2cccc(Cl)c2)cc1)C[C@@H](O)C(=O)O)c1nc(O)n[nH]1 [Example 4-2, (R)-3-[N-(3′-Chlorobiphenyl-4-ylmethyl)-N′-(5-hydroxy-2H-[1,2,4]triazole-3-carbonyl)-hydrazino]-2-hydroxy-propionic acid]
≤ 1 | O=C(NN(Cc1ccc(-c2cccc(Cl)c2)cc1)C[C@@H](O)C(=O)O)c1nnn[nH]1 [Example 4-5, (R)-3-[N-(3′-Chlorobiphenyl-4-ylmethyl)-N′-(1H-tetrazole-5-carbonyl)-hydrazino]-2-hydroxy-propionic acid]
1.26 to 10 | Cc1cc(Cl)cc(-c2ccc(CN(C[C@H](O)C(=O)O)NC(=O)c3cc(O)no3)cc2)c1F [Example 8-23, (S)-3-[N-(5′-Chloro-2′-fluoro-3′-methyl-biphenyl-4-ylmethyl)-N′-(3-hydroxy-isoxazole-5-carbonyl)-hydrazino]-2-hydroxy-propionic acid]
1.26 to 10 | O=C(NN(Cc1ccc(-c2cccc(Cl)c2)cc1)C[C@@H](O)C(=O)O)c1cc(-c2cccnc2)[nH]n1 [Example 4-9, (R)-3-[N-(3′-Chlorobiphenyl-4-ylmethyl)-N′-(5-pyridin-3-yl-1H-pyrazole-3-carbonyl)-hydrazino]-2-hydroxy-propionic acid]
≤ 1 | CN(CC1CC1)C(=O)c1cc(C(=O)NN(Cc2ccc(-c3cccc(Cl)c3)cc2)C[C@@H](O)C(=O)O)[nH]n1 [Example 4-17, (R)-3-{N-(3′-Chlorobiphenyl-4-ylmethyl)-N′-[5-(cyclopropylmethyl-methyl-carbamoyl)-2H-pyrazole-3-carbonyl]-hydrazino}-2-hydroxy-propionic acid]
≤ 1 | O=C(NN(Cc1ccc(-c2cc(Cl)ccc2F)cc1)C[C@@H](O)C(=O)O)c1cc(Cl)c2nn[nH]c2c1 [Example 8-69, (R)-3-[N′-(7-Chloro-3H-benzotriazole-5-carbonyl)-N-(5′-chloro-2′-fluoro-biphenyl-4-ylmethyl)-hydrazino]-2-hydroxy-propionic acid]
≤ 1 | COc1ccccc1-c1cc(C(=O)NN(Cc2ccc(-c3cc(Cl)ccc3F)cc2)C[C@@H](O)C(=O)O)on1 [Example 8-15, (R)-3-{N-(5′-Chloro-2′-fluoro-biphenyl-4-ylmethyl)-N′-[3-(2-methoxy-phenyl)-isoxazole-5-carbonyl]-hydrazino}-2-hydroxy-propionic acid]
1.26 to 10 | CC(=O)c1cc(C(=O)NN(Cc2ccc(-c3cc(Cl)ccc3Cl)cc2)C[C@H](O)C(=O)O)[nH]n1 [Example 8-48, (S)-3-[N′-(5-Acetyl-2H-pyrazole-3-carbonyl)-N-(2′,5′-dichloro-biphenyl-4-ylmethyl)-hydrazino]-2-hydroxy-propionic acid]
1.26 to 10 | O=C(NN(Cc1ccc(-c2ccccc2Cl)cc1)C[C@@H](O)C(=O)O)c1cc(O)no1 [Example 5-7, (R)-3-[N-(2′-Chloro-biphenyl-4-ylmethyl)-N′-(3-hydroxy-isoxazole-5-carbonyl)-hydrazino]-2-hydroxy-propionic acid]
1.26 to 10 | COCc1cc(C(=O)NN(Cc2ccc(-c3cccc(Cl)c3)cc2)C[C@@H](O)C(=O)O)[nH]n1 [Example 4-26, (R)-3-[N-(3′-Chlorobiphenyl-4-ylmethyl)-N′-(5-methoxymethyl-2H-pyrazole-3-carbonyl)-hydrazino]-2-hydroxy-propionic acid]
